According to the supplement of paper PMC10307832:

Tests used:
Assay in all cases: relative viability (nuclei count vs DMSO), 5 days (fraction); higher = more cells survive
[1] = system: A549
Summary of the method: (§1)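 Nuclei were stained with Hoechst during a one-step fixation (final 0.05% Triton X-100, 1% formaldehyde, 1 ug/ml Hoechst) carried out 5 days after dosing, then counted on 4× images. The cells, lung cancer lines in 1536-well plates, had been dosed by pin tool the day after seeding with one drug alone or a fixed anchor-drug dose plus five library-drug doses (not always all listed) in √10 steps. Relative viability is the nuclei count in treated wells divided by that in vehicle wells, and each value is the median of duplicate plates.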

[2] = system: Calu-6
Summary of the method: as §1

[3] = system: EBC-1
Summary of the method: as §1

[4] = system: IA-LM
Summary of the method: as §1

[5] = system: NCI-H1299
Summary of the method: as §1

[6] = system: NCI-H1563
Summary of the method: as §1

[7] = system: NCI-H1703
Summary of the method: as §1

SMILES	relative viability ([1]; first compound 0.08 µM)	relative viability ([1]; first compound 0.253 µM)	relative viability ([1]; first compound 0.8 µM)	relative viability ([1]; first compound 2.53 µM)	relative viability ([1]; first compound 8 µM)	relative viability ([2]; first compound 0.08 µM)	relative viability ([2]; first compound 0.253 µM)	relative viability ([2]; first compound 0.8 µM)	relative viability ([2]; first compound 2.53 µM)	relative viability ([2]; first compound 8 µM)	relative viability ([3]; first compound 0.08 µM)	relative viability ([3]; first compound 0.253 µM)	relative viability ([3]; first compound 0.8 µM)	relative viability ([3]; first compound 2.53 µM)	relative viability ([3]; first compound 8 µM)	relative viability ([4]; first compound 0.08 µM)	relative viability ([4]; first compound 0.253 µM)	relative viability ([4]; first compound 0.8 µM)	relative viability ([4]; first compound 2.53 µM)	relative viability ([4]; first compound 8 µM)	relative viability ([5]; first compound 0.08 µM)	relative viability ([5]; first compound 0.253 µM)	relative viability ([5]; first compound 0.8 µM)	relative viability ([5]; first compound 2.53 µM)	relative viability ([5]; first compound 8 µM)	relative viability ([6]; first compound 0.08 µM)	relative viability ([6]; first compound 0.253 µM)	relative viability ([6]; first compound 0.8 µM)	relative viability ([6]; first compound 2.53 µM)	relative viability ([6]; first compound 8 µM)	relative viability ([7]; first compound 0.08 µM)	relative viability ([7]; first compound 0.253 µM)	relative viability ([7]; first compound 0.8 µM)	relative viability ([7]; first compound 2.53 µM)	relative viability ([7]; first compound 8 µM)
O=c1[nH]c2ccccc2n1C1CCN(CCCC(c2ccc(F)cc2)c2ccc(F)cc2)CC1 [Pimozide] + Cc1nc(NC(=O)N2CCC[C@H]2C(N)=O)sc1-c1ccnc(C(C)(C)C(F)(F)F)c1 [Alpelisib] (partner 2 µM)	0.727	0.762	0.678	0.707	0.617	0.938	0.999	0.92	0.844	0.883	0.895	0.724	0.823	0.796	0.728	0.695	0.846	0.666	0.894	0.853	1.04	0.981	1.04	1.07	1.12	0.919	0.814	0.819	0.798	0.739	0.323	0.325	0.385	0.258	0.274
O=c1[nH]c2ccccc2n1C1CCN(CCCC(c2ccc(F)cc2)c2ccc(F)cc2)CC1 [Pimozide] + C[C@@H](Oc1cc(-c2cnn(C3CCNCC3)c2)cnc1N)c1c(Cl)ccc(F)c1Cl [Crizotinib] (partner 1 µM)	0.756	0.668	0.643	0.658	0.644	0.781	0.814	0.793	0.679	0.624	0.19	0.232	0.199	0.175	0.152	0.975	0.88	0.988	0.879	0.859	0.955	0.838	0.934	0.811	0.885	0.824	0.844	0.803	0.775	0.645	0.489	0.852	0.666	0.403	0.545
Cc1cnc(-c2cnc(NCCNc3ccc(C#N)cn3)nc2-c2ccc(Cl)cc2Cl)[nH]1 + C[C@]1(O)C[C@@H](c2nc(-c3ccc4ccc(-c5ccccc5)nc4c3)c3c(N)nccn32)C1 [Linsitinib] (partner 1 µM)	0.719	0.477	0.468	0.548	–	1.01	0.888	–	0.971	–	0.913	0.713	0.859	0.819	–	0.604	0.257	0.744	0.542	–	0.882	0.967	0.503	0.861	–	1.33	1.2	1.22	1.1	–	0.986	0.631	0.884	1.21	–
